Test results taken from patent US12351571B2, “Substituted quinoxaline compounds as inhibitors of FGFR tyrosine kinases” (ARRAY BIOPHARMA INC., priority 2018, dated 2025).

Assays:
[1] = biological target: human wild type FGFR1 (Homo sapiens (Human), UniProt P11362); test: FGFR1 pERK Cell Assay; type: cell-based; conditions: HEK-293 cells, 1 hour compound, 100 ng/ml human FGF-acidic; maximum concentration 5 μM
Description: (§1) HEK-293 cells transfected with doxycycline(dox)-inducible human wild type FGFR1 (SEQ ID NO: 1) were plated in a collagen or poly-D-lysine coated 96 well flat bottom plates at 4×10^5 cells/well in complete Dulbecco's Modified Eagle Medium (DMEM) containing 10% FBS and 1 μg/ml doxycycline and allowed to attach for 24 h at 37° C., 5% CO2. Cells were treated with compound using 1:3 serial dilutions with a maximum final concentration of 5 μM. Compound was incubated on cells for 1 hour at 37° C., 5% CO2. Cells were then stimulated with a final concentration of 100 ng/ml human FGF-acidic (R&D Systems Cat number 232-FA/CF) for 5 minutes at 37° C., 5% CO2. Medium was removed, and cells were lysed with lysis buffer containing phosphatase and protease inhibitors. Phospho ERK1/2 was measured using the Meso Scale Discovery sandwich assay (Meso Scale Discovery cat. no. K151DWD). The assay captures phospho ERK1/2 and detects with a sulfo-tagged total ERK1/2 antibody. The chemiluminescent signal was read on the Sector Imager Plate reader. 100 POC was determined using no test compound and 0 POC was determined using a control compound. The POC values were fit to a 4-parameter logistic curve as a function of the concentration of the compound, and the IC50 value is the point where the curve crosses 50 POC.

[2] = biological target: recombinant human FGFR2 cytoplasmic domain (Homo sapiens (Human), UniProt P21802); test: FGFR Enzyme Activity Assay (LanthaScreen TR-FRET), FGFR2; type: biochemical; conditions: 15 μM ATP, 20 minute incubation; read-out: FGFR2 Enz FRET IC50
Chain of recombinant human FGFR2 cytoplasmic domain (P21802 402-821): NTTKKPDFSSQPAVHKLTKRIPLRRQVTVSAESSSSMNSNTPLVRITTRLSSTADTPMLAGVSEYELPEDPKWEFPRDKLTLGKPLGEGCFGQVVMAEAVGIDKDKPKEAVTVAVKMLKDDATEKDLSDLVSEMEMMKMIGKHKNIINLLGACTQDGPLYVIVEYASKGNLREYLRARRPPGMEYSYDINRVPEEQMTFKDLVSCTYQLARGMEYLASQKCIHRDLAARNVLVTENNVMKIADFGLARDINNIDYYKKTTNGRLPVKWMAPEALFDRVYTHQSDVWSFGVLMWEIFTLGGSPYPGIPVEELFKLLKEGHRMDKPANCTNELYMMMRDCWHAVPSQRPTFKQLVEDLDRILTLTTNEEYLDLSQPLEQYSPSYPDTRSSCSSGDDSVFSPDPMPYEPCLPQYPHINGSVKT
Description: FGFR2 kinase activity was measured by the Invitrogen LanthaScreen™ Assay technology which directly measures the amount of substrate phosphorylation by TR-FRET using a flourescently-labeled peptide and Europium-labeled antibody. Briefly, 200 pM His-tagged recombinant human FGFR2 cytoplasmic domain (amino acids 403-822) (Life Technologies Cat. No. PR5332A) was incubated with 100 nM Alexa Fluor® 647-Poly-GT Peptide Substrate (Life Technologies Cat. No. PV5836) and 15 μM ATP along with test compound in a buffer consisting of 250 mM HEPES, 25 mM MgCl2, 0.05% TritonX-100, pH 7.5, and 2% DMSO. Compounds were typically prepared in a threefold serial dilution in DMSO and added to the assay to give the appropriate final concentration. After a 20 minute incubation at 22° C., an equal volume of 2 nM LanthaScreen® Eu-PY20 Antibody (Life Technologies Cat. No. PV5691) and 10 mM EDTA were added to quench the kinase reaction and start the detection reaction. After an additional 60 minute incubation at 22° C., the reaction was measured using a PerkinElmer EnVision multimode plate reader via TR-FRET dual wavelength detection, and the percent of control (POC) calculated using a ratiometric emission factor. 100 POC was determined using no test compounds and 0 POC was determined using no enzyme. The POC values were fit to a 4-parameter logistic curve as a function of the concentration of the compound, and the IC50 value is the point where the curve crosses 50 POC.

[3] = biological target: FGFR3 (Homo sapiens (Human), UniProt P22607); test: LC/MS FGFR3 kobs assay (covalent modification); type: biochemical; conditions: 500 nM FGFR3, 3 μM compound
Chain of FGFR3 (P22607 449-759): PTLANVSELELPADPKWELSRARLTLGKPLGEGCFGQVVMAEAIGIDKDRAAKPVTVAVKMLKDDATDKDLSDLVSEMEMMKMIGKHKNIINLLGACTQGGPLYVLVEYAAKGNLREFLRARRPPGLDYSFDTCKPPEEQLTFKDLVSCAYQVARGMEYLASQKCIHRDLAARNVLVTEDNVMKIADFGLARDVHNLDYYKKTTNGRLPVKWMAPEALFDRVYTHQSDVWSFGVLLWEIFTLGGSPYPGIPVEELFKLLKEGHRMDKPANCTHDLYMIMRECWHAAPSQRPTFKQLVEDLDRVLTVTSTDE
Description: The LC/MS FGFR1 and FGFR3 kobs assays were conducted as follows. 500 nM FGFR1 (Array BioPharma construct p1702; SEQ ID NO: 1, amino acids 458-765) or FGFR3 (Array BioPharma construct p1700; SEQ ID NO: 5, amino acids 449-759) were incubated with 3 μM compound in 25 mM HEPES (4-(2-hydroxyethyl)-1-piperazineethanesulfonic acid), pH 7.4, 5 mM MgCl2, 150 mM NaCl, 0.5 mM TCEP (tris(2-carboxyethyl) phosphine), and 2% DMSO in a total volume of 20 μL. At each time point, the reaction was quenched with 20 μL of 0.4% formic acid. The extent of protein modification by each compound was determined by LC/MS on an Agilent Technologies 6520 Q-TOF LC/MS. Protein signals were then automatically deconvoluted using Agilent Masshunter software. Deconvoluted mass signals were exported to Tibco Spotfire data analysis program for further processing and normalization.
Data analysis included five steps. First, the signals for the “DMSO Controls” were analyzed to determine the percent of signal associated with unmodified FGFR1 or FGFR3 at each time point. Next, the percent of the signal associated with the covalent modification was determined. Third, the average nonmodified “DMSO Control” signal was used to normalize the modified protein signals at each time point. The percent of unmodified protein was fit to an exponential decay model where A0 is the Percent Unmodified at the start of the reaction, and kobs is the observed rate constant over the time period.

[4] = biological target: human wild type FGFR3 (Homo sapiens (Human), UniProt P22607); test: FGFR3 pERK Cell Assay; type: cell-based; conditions: HEK-293 cells, 1 hour compound, 100 ng/ml human FGF-acidic; maximum concentration 5 μM
Chain of human wild type FGFR3 (P22607 23-806): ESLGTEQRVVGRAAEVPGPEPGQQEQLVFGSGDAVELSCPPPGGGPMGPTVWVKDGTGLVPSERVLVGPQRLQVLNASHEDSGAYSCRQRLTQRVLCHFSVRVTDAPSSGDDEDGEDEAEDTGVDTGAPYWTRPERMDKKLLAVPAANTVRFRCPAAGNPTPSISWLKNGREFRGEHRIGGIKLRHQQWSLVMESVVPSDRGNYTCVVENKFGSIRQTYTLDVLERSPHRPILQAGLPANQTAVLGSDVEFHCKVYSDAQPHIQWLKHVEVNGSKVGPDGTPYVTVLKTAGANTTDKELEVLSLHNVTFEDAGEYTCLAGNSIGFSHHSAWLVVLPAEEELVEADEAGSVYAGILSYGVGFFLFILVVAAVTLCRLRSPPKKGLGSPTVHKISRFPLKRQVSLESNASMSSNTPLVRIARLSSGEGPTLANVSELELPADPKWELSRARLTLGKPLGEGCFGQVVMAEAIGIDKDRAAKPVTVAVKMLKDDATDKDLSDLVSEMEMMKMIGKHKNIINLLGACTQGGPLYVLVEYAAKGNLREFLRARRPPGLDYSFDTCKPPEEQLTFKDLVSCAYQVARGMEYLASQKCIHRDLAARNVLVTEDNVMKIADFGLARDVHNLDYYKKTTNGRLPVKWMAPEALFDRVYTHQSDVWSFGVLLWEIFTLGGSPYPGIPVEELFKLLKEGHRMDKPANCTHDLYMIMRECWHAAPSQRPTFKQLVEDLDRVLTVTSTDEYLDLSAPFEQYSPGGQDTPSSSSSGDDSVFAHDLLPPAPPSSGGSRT
Description: as §1, with “with dox-inducible” for “with doxycycline(dox)-inducible”, “type FGFR3” for “type FGFR1”, “NO: 5)” for “NO: 1)”, “complete DMEM medium” for “complete Dulbecco's Modified Eagle Medium (DMEM)”, “test compounds” for “test compound”

Chain of human wild type FGFR1 (P11362 22-822): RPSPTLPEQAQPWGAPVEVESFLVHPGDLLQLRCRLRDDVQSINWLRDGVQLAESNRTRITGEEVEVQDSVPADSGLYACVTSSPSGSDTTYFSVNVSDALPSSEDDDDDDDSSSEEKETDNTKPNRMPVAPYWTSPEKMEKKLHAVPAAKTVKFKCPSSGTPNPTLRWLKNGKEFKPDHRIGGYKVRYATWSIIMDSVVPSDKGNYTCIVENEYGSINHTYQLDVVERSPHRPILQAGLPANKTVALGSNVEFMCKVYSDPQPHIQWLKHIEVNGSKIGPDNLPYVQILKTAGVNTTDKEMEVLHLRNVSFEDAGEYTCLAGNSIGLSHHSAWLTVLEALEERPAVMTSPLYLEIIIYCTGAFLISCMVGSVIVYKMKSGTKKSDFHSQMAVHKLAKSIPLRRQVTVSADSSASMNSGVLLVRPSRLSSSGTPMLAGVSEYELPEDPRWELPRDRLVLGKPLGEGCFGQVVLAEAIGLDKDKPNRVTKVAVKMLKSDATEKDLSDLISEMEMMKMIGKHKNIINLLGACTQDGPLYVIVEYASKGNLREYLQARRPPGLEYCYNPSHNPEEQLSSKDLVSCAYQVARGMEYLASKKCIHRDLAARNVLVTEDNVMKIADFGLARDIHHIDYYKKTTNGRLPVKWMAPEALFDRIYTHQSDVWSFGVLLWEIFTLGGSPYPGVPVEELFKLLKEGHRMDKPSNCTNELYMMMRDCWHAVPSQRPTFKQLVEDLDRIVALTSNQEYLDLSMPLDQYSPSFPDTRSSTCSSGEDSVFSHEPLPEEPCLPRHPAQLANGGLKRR

SMILES | IC50 [1] | IC50 [2] | FGFR3 Enz kobs [3] | IC50 [4]
C=CC(=O)N1CC(C#N)(C(=O)N2CCC(n3cc(-c4cnc5ccc(Nc6cc(OC)cc(OC)c6)cc5n4)cn3)CC2)C1 [Example 12, 1-acryloyl-3-(4-(4-(7-((3,5-dimethoxyphenyl)-amino)quinoxalin-2-yl)-1H-pyrazol-1-yl)-piperidine-1-carbonyl)-azetidine-3-carbonitrile] | 149 nM | 33 nM | 0.07246 min⁻¹ | 22 nM
C=CC(=O)N1CC(C(=O)N2CC(n3cc(-c4cnc5ccc(Nc6cc(OC)cc(OC)c6)cc5n4)cn3)C2)C1 [Example 16, 1-(3-(3-(4-(7-((3,5-dimethoxyphenyl)amino)-quinoxalin-2-yl)-1H-pyrazol-1-yl)azetidine-1-carbonyl)azetidin-1-yl)-prop-2-en-1-one] | 3000 nM | 27 nM | 0.01232 min⁻¹ | 397 nM
C=CC(=O)N1CC(C(=O)N2CCC(n3ncc(-c4cnc5ccc(Nc6cc(OC)cc(OC)c6)cc5n4)c3C)CC2)C1 [Example 18, 1-(3-(4-(4-(7-((3,5-dimethoxyphenyl)amino)-quinoxalin-2-yl)-5-methyl-1H-pyrazol-1-yl)piperi-dine-1-carbonyl)azetidin-1-yl)prop-2-en-1-one] | 3660 nM | 555 nM | 0.01462 min⁻¹ | 216 nM
COc1cc(Nc2ccc3ncc(-c4cnn([C@@H]5CCN(C(=O)C6(F)CN(C(=O)/C=C/CN(C)C)C6)C5)c4)nc3c2)cc(OC)c1 [Example 19, (R,E)-1-(3-(3-(4-(7-((3,5-dimethoxyphenyl)amino)-quinoxalin-2-yl)-1H-pyrazol-1-yl)pyrrolidine-1-carbonyl)-3-fluoro-azetidin-1-yl)-4-(dimethyl-amino)but-2-en-1-one] | 1280 nM | 166 nM | 0.03902 min⁻¹ | 114 nM
COc1cc(Nc2ccc3ncc(-c4cnn([C@@H]5CCN(C(=O)C6CN(C(=O)/C=C/CN(C)C)C6)C5)c4)nc3c2)cc(OC)c1 [Example 20, (R,E)-1-(3-(3-(4-(7-((3,5-dimethoxyphenyl)amino)-quinoxalin-2-yl)-1H-pyrazol-1-yl)pyrrolidine-1-carbonyl)azetidin-1-yl)-4-(dimethylamino)but-2-en-1-one] | ≥ 5000 nM | 107 nM | 0.00892 min⁻¹ | 2740 nM
C=CC(=O)N1CC(C(=O)N2CC[C@@H](n3cc(-c4cnc5ccc(Nc6cc(OC)cc(OC)c6)cc5n4)cn3)C2)C1 [Example 21, (R)-1-(3-(3-(4-(7-((3,5-dimethoxyphenyl)amino)-quinoxalin-2-yl)-1H-pyrazol-1-yl)pyrrolidine-1-carbonyl)azetidin-1-yl)prop-2-en-1-one] | 1890 nM | 187 nM | 0.00664 min⁻¹ | 390 nM
COc1cc(Nc2ccc3ncc(-c4c(C)nn(C5CCN(C(=O)C6(F)CN(C(=O)/C=C/CN(C)C)C6)CC5)c4C)nc3c2)cc(OC)c1 [Example 23, (E)-1-(3-(4-(4-(7-((3,5-dimethoxyphenyl)amino)-quinoxalin-2-yl)-3,5-dimethyl-1H-pyrazol-1-yl)piperidine-1-carbonyl)-3-fluoroazetidin-1-yl)-4-(dimethylamino)but-2-en-1-one] | 1940 nM | 3460 nM | 0.07588 min⁻¹ | 699 nM
C=CC(=O)N1CC(OC)(C(=O)N2CCC(n3cc(-c4cnc5ccc(Nc6cc(OC)cc(OC)c6)cc5n4)cn3)CC2)C1 [Example 24, 1-(3-(4-(4-(7-((3,5-dimethoxyphenyl)amino)-quinoxalin-2-yl)-1H-pyrazol-1-yl)piperidine-1-carbonyl)-3-methoxy-azetidin-1-yl)prop-2-en-1-one] | 225 nM | 211 nM | 0.01322 min⁻¹ | 19 nM

The next lines start with the values.

IC50 [1] | IC50 [2] | FGFR3 Enz kobs [3] | IC50 [4] | SMILES
1940 nM | 666 nM | 0.04226 min⁻¹ | 540 nM | COc1cc(Nc2ccc3ncc(-c4cnc(N5CCN(C(=O)C6(F)CN(C(=O)/C=C/CN(C)C)C6)CC5)cc4C)nc3c2)cc(OC)c1 [Example 14, (E)-1-(3-(4-(5-(7-((3,5-dimethoxyphenyl)amino)-quinoxalin-2-yl)-4-methylpyridin-2-yl)-piperazine-1-carbonyl)-3-fluoroazetidin-1-yl)-4-(dimethylamino)but-2-en-1-one]
≥ 5000 nM | 5000 nM | 0.0172 min⁻¹ | 528 nM | C=CC(=O)N1CC(F)(C(=O)N2CCN(c3cc(C)c(-c4cnc5ccc(Nc6cc(OC)cc(OC)c6)cc5n4)cn3)CC2)C1 [Example 15, 1-(3-(4-(5-(7-((3,5-dimethoxyphenyl)amino)-quinoxalin-2-yl)-4-methylpyridin-2-yl)-piperazine-1-carbonyl)-3-fluoroazetidin-1-yl)prop-2-en-1-one]
423 nM | 118 nM | 0.08024 min⁻¹ | 61 nM | COc1cc(Nc2ccc3ncc(-c4cnn(C5CCN(C(=O)C6(F)CN(C(=O)/C=C/CN(C)C)C6)CC5)c4C)nc3c2)cc(OC)c1 [Example 17, (E)-1-(3-(4-(4-(7-((3,5-dimethoxyphenyl)amino)-quinoxalin-2-yl)-5-methyl-1H-pyrazol-1-yl)piperi-dine-1-carbonyl)-3-fluoroazetidin-1-yl)-4-(dimethylamino)but-2-en-1-one]
898 nM | 84 nM | 0.05725 min⁻¹ | 113 nM | COc1cc(Nc2ccc3ncc(-c4cn(C5CCN(C(=O)C6(F)CN(C(=O)/C=C/CN(C)C)C6)CC5)nc4C)nc3c2)cc(OC)c1 [Example 22, (E)-1-(3-(4-(4-(7-((3,5-dimethoxyphenyl)amino)-quinoxalin-2-yl)-3-methyl-1H-pyrazol-1-yl)-piperidine-1-carbonyl)-3-fluoroazetidin-1-yl)-4-(dimethylamino)but-2-en-1-one]
